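Interpolation was linear, between the two tested concentrations surrounding the appropriate level; five concentrations were tested over 48 hours in 96-well plates. GI50 marks 50% less growth. TGI is the concentration that stops growth completely.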

Test systems include K-562 leukemia; OVCAR-5 ovarian; SK-OV-3 ovarian; MOLT-4 leukemia; OVCAR-4 ovarian; TK-10 renal; NCI-H522 lung; EKVX NSCLC; A498 renal; CAKI-1 renal.
Holding throughout (assay): NCI tumour cell line growth inhibition, 48 h

Take `CN(C)c1ccc(Nc2c3ccccc3nc3ccccc23)cc1`: the GI50 with K-562 leukemia is 0.847 µM; in the test on OVCAR-5 ovarian, 1.54 µM; in the test with SK-OV-3 ovarian, 1.27 µM; in the test with MOLT-4 leukemia it was 0.357 µM; in the test on OVCAR-4 ovarian it was 1.26 µM; with TK-10 renal, 0.937 µM. For the same molecule, the GI50 with NCI-H522 lung was 0.685 µM; in the test on EKVX NSCLC, 1.4 µM; in the test with A498 renal, 0.353 µM; in the test on CAKI-1 renal, 0.486 µM. Moreover, the TGI was 7.83 µM with K-562 leukemia; 6.72 µM in the test on OVCAR-5 ovarian; 3.77 µM with SK-OV-3 ovarian; 5.18 µM in the test on MOLT-4 leukemia; 5.44 µM in the test with OVCAR-4 ovarian; 4.19 µM with TK-10 renal. Moreover, the TGI in the test with NCI-H522 lung is 2.52 µM; with EKVX NSCLC it was 6.35 µM; with A498 renal, 4.45 µM; in the test with CAKI-1 renal, 2.33 µM.

Consider `CN1C(=O)c2ccc3ccccc3c2C1=O`, for which the TGI in the test with K-562 leukemia, with OVCAR-5 ovarian, in the test on SK-OV-3 ovarian, in the test on MOLT-4 leukemia, with OVCAR-4 ovarian and in the test on TK-10 renal was above 100 µM each time. The TGI in the test with NCI-H522 lung was above 100 µM; in the test with EKVX NSCLC it was 87.2 µM; in the test with A498 renal, above 100 µM; in the test with CAKI-1 renal it was above 100 µM.

In the case of `COC(=O)c1c2c(c(C)[n+]([O-])c1C)C(=O)C=C(NCc1ccccc1)C2=O`, the GI50 with K-562 leukemia is 0.418 µM; with OVCAR-5 ovarian it was 1.35 µM; in the test with SK-OV-3 ovarian it was 2.03 µM; with MOLT-4 leukemia, 0.619 µM; in the test with OVCAR-4 ovarian it was 0.283 µM; in the test on TK-10 renal, 2.92 µM. Moreover, the GI50 in the test with NCI-H522 lung is 1.33 µM; in the test on EKVX NSCLC it was 1.14 µM; with A498 renal, 1.57 µM; in the test on CAKI-1 renal, 1.09 µM. In addition, the TGI in the test on K-562 leukemia was 3.05 µM; in the test with OVCAR-5 ovarian, 2.7 µM; in the test with SK-OV-3 ovarian, 4.18 µM; with MOLT-4 leukemia, 2.83 µM; in the test on OVCAR-4 ovarian, 1.18 µM; in the test on TK-10 renal, 7.19 µM. Also, the TGI is 3.25 µM with NCI-H522 lung, 2.55 µM in the test with EKVX NSCLC, 2.96 µM in the test with A498 renal and 3.1 µM in the test on CAKI-1 renal.

As to `O=C(NCCN1CCOCC1)OCc1nc2nc(Cl)nc(N3CCOCC3)c2[nH]1`, the GI50 was 2.43 µM with K-562 leukemia; 4.42 µM in the test with OVCAR-5 ovarian; 5.28 µM in the test on SK-OV-3 ovarian; 3.32 µM in the test on MOLT-4 leukemia; 9.69 µM in the test with OVCAR-4 ovarian; above 100 µM with TK-10 renal. Further, the GI50 in the test with NCI-H522 lung was 1.11 µM; in the test on EKVX NSCLC, above 100 µM; with A498 renal, 1.68 µM; in the test with CAKI-1 renal it was 3.07 µM. The TGI with K-562 leukemia, in the test with OVCAR-5 ovarian, in the test with SK-OV-3 ovarian, in the test with MOLT-4 leukemia, in the test on OVCAR-4 ovarian and in the test with TK-10 renal was above 100 µM in each case. Also, the TGI is above 100 µM in the test with NCI-H522 lung, above 100 µM with EKVX NSCLC, 6.66 µM in the test with A498 renal and above 100 µM with CAKI-1 renal.

In the case of `CCCCC(SC(=S)N1CCCC1)C(=O)Nc1nc(CC(=O)OCC)cs1` (stereo unspecified), the GI50 was 15.6 µM in the test with K-562 leukemia; 37.2 µM in the test on OVCAR-5 ovarian; 97.4 µM with SK-OV-3 ovarian; 1.91 µM in the test on MOLT-4 leukemia; 43.4 µM with OVCAR-4 ovarian; above 100 µM in the test with TK-10 renal. Moreover, the GI50 in the test with NCI-H522 lung is 6.87 µM; with EKVX NSCLC, 56.4 µM; in the test with A498 renal, 64.6 µM; with CAKI-1 renal, above 100 µM. Also, the TGI with K-562 leukemia, with OVCAR-5 ovarian, in the test on SK-OV-3 ovarian, in the test on MOLT-4 leukemia, with OVCAR-4 ovarian and with TK-10 renal was above 100 µM throughout. In addition, the TGI in the test on NCI-H522 lung, in the test on EKVX NSCLC, with A498 renal and in the test on CAKI-1 renal was above 100 µM throughout.

For the molecule `O=c1cccccc1[O-].O=c1cccccc1[O-].O=c1cccccc1[O-].[Eu+3]`, the TGI with K-562 leukemia, with OVCAR-5 ovarian, in the test on SK-OV-3 ovarian, with MOLT-4 leukemia, with OVCAR-4 ovarian and in the test with TK-10 renal was above 100 µM each time. Besides, the TGI in the test on NCI-H522 lung was 54.8 µM; with EKVX NSCLC, above 100 µM; in the test on A498 renal, above 100 µM; in the test with CAKI-1 renal, above 100 µM. Further, the GI50 in the test on A498 renal is 78.4 µM.

In the case of `Cc1cn2c(/C=C3/C(=O)Nc4c3ccc3ccccc43)c(C(F)(F)F)nc2s1`, the GI50 with K-562 leukemia is 0.483 µM; in the test on OVCAR-5 ovarian, 9.99 µM; in the test with SK-OV-3 ovarian, 1.25 µM; with MOLT-4 leukemia, 2.7 µM; in the test with OVCAR-4 ovarian, 3.63 µM; in the test on TK-10 renal, 12.6 µM. For the same molecule, the GI50 in the test with NCI-H522 lung is 0.584 µM; in the test with EKVX NSCLC, 4.23 µM; in the test with A498 renal, 1.7 µM; in the test with CAKI-1 renal it was 1.76 µM. Besides, the TGI was 14.1 µM in the test on K-562 leukemia; above 100 µM in the test on OVCAR-5 ovarian; 69.3 µM with SK-OV-3 ovarian; above 100 µM in the test on MOLT-4 leukemia; above 100 µM with OVCAR-4 ovarian; above 100 µM in the test with TK-10 renal. Also, the TGI in the test on NCI-H522 lung, in the test on EKVX NSCLC, in the test on A498 renal and with CAKI-1 renal was above 100 µM in each case.

`C/C(=C\c1ccn(-c2ccccc2N)n1)[C@@H]1C[C@@H]2O[C@]2(C)CCC[C@H](C)[C@H](O)[C@@H](C)C(=O)C(C)(C)[C@@H](O)CC(=O)O1`: the GI50 with K-562 leukemia was 0.0268 µM; with OVCAR-5 ovarian, 0.102 µM; with SK-OV-3 ovarian it was 0.081 µM; in the test with MOLT-4 leukemia, 0.0341 µM; in the test with OVCAR-4 ovarian, 0.392 µM; in the test with TK-10 renal it was 0.143 µM. In addition, the GI50 in the test on NCI-H522 lung was 0.0511 µM; in the test with EKVX NSCLC, 0.684 µM; in the test on A498 renal, 0.0372 µM; with CAKI-1 renal, 0.242 µM. The TGI was above 50 µM with K-562 leukemia; above 40.9 µM in the test with OVCAR-5 ovarian; above 50 µM in the test on SK-OV-3 ovarian; above 42.2 µM in the test with MOLT-4 leukemia; above 50 µM in the test with OVCAR-4 ovarian; above 50 µM with TK-10 renal. The TGI in the test on NCI-H522 lung was 0.386 µM; with EKVX NSCLC it was above 50 µM; with A498 renal, 0.669 µM; in the test with CAKI-1 renal, above 50 µM.
